Publication PMC8896310 (Cell, 2022)

Tests used:
BVU_0767 = biological target: T1, BVU_0767 (Phocaeicola vulgatus, UniProt A6KYF7); experiment: DTNB thioesterase assay, […] nm; format: biochemical; conditions: 100 uM acyl-CoA, 25 nM enzyme, 60 mM potassium phosphate pH 7.4, 37 C
T1 sequence (A6KYF7 1-137): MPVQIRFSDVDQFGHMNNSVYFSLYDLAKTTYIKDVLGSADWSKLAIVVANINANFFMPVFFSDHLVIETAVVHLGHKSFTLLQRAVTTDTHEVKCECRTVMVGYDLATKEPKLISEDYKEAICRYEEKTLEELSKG

BT_3942 = biological target: T2, BT_3942 (Bacteroides thetaiotaomicron, UniProt Q8A0S9); experiment: DTNB thioesterase assay, […] nm; format: biochemical; conditions: 100 uM acyl-CoA, 25 nM enzyme, 60 mM potassium phosphate pH 7.4, 37 C
T2 sequence (Q8A0S9 1-145): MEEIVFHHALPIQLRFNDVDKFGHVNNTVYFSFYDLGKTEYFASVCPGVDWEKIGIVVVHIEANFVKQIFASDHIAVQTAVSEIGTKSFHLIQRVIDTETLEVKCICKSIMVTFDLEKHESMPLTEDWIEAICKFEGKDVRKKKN

CCCC(=O)SCCNC(=O)CCNC(=O)[C@H](O)C(C)(C)COP(=O)(O)OP(=O)(O)OC[C@H]1O[C@@H](n2cnc3c(N)ncnc32)[C@H](O)[C@@H]1OP(=O)(O)O [butyryl-CoA] was tested, and the “DTNB thioesterase assay, 412 nm” value (BVU_0767) was “different substrate specificity for hydrolysis of short chain lengths of Acyl-CoAs and propionyl- and butyryl-CoA”.
In the case of CCC(=O)SCCNC(=O)CCNC(=O)[C@H](O)C(C)(C)COP(=O)(O)OP(=O)(O)OC[C@H]1O[C@@H](n2cnc3c(N)ncnc32)[C@H](O)[C@@H]1OP(=O)(O)O [propionyl-CoA], the “DTNB thioesterase assay, 412 nm” value (BVU_0767) was “different substrate specificity for hydrolysis of short chain lengths of Acyl-CoAs and propionyl- and butyryl-CoA” and the “DTNB thioesterase assay, 412 nm” value (BT_3942) was “different substrate specificity for hydrolysis of short chain lengths of Acyl-CoAs and propionyl- and butyryl-CoA”.
